Measured values: patent US4732916A, “Novel guanidinomethylbenzoic acid derivatives” (Kabushiki Kaisha Med-Creat, priority 1985, dated 1988)

What was measured:
Format in all cases: in vivo
[1] = test system: ethanol induced ulcer; assay: Test Method 2: Effect on Ethanol Induced Ulcer; conditions: Rattus norvegicus; SD male rats, oral, 30 minutes before oral ethanol (99.5%, 1 ml); stomachs removed one hour later
Description: 1. Test Procedures The method of Robert (Gastroenterology, 77, 433 (1979)) was followed. SD male rats each weighing from 180 to 200 g (8 weeks of age and 6 to 8 rats in one group) were fasted for 24 hours, followed by oral administration of the test compounds which had been suspended in 1% CMC aqueous solution. After lapse of 30 minutes, 1 ml of ethanol (99.5%) was orally administered. One hour later, the animals were killed under etherization to remove the stomachs. Each of the stomachs was injected with 12 ml of 1% formalin aqueous solution and then immersed in 1% formalin aqueous solution for 15 minutes. The ulcer factor and ulcer inhibition rate were determined in a manner similar to Test Method 1. The ED50 values were obtained from the doses-ulcer inhibition rates curve.

[2] = test system: stress induced ulcer; assay: Test Method 1: Effect on Stress Induced Ulcer; conditions: Rattus norvegicus; SD male rats, oral, 15 minutes before restraint and water immersion (24° C., 18 hours); from doses-ulcer inhibition rates curve
Description: 1. Test Procedures The method of Takagi et al (Jap. J. Pharmacol., 18, 9 (1968)) was followed. SD male rats each weighing from 180 to 200 g (8 weeks of age and 6 to 8 rats in one group) were fasted for 24 hours, followed by oral administration of the above test compounds which had been suspended in 1% CMC aqueous solution. 15 minutes later, the animals were put into a stress cage which was then immersed in a water tank at 24° C. at the depth of the […] of the animals. After being immersed for 18 hours, the animals were killed under etherization to excise the stomachs. Each of the stomachs was injected with 12 ml of 1% formalin aqueous solution and then immersed in 1% formalin aqueous solution for 15 minutes. The stomach was incised along its upper curvature and measured by an anatomic microscopy for the major axis (mm) of each ulcer that had developed on the gastric mucous membrane. The total major axis (mm) was taken as the ulcer factor. The ulcer inhibition rate was obtained from the following equation. The ED50 values were obtained from the doses-ulcer inhibition rates curve. [formula] where l is the ulcer factor of a group without the test compounds administered, and m is the ulcer factor of a group having such compounds administered.

[3] = test system: indomethacin induced ulcer; assay: Test Method 3: Effect on Indomethacin Induced Ulcer; conditions: Rattus norvegicus; SD male rats, oral, 15 minutes before s.c. indomethacin (30 mg/kg); stomachs removed after 5 hours
Description: The method of Okabe et al (Jap. J. Pharmacol., 29, 670 (1979)) was followed.
SD male rats each weighing from 180 to 200 g (8 weeks of age and 6 to 8 in one group) were fasted for 24 hours, followed by oral administration of the test compounds which had been suspended in 1% CMC aqueous solution, and 15 minutes afterwards, by subcutaneous administration of indomethacin (30 mg/kg of weight) which had been dissolved in 3% sodium bicarbonate aqueous solution. After lapse of 5 hours, the animals were killed under etherization to take out the stomachs. Each of the stomachs was injected with 12 ml of 1% formalin aqueous solution containing 0.1% pontamine sky blue and then immersed in 1% formalin aqueous solution for 15 minutes. The ulcer factor and ulcer inhibition rate were determined in a manner similar to Test Method 1. The ED50 values were obtained from the dosesulcer inhibition rates curve.

[4] = test system: ddY male mice; assay: Test Method 4: Acute Toxicity-Minimum Lethal Dose (MLD); conditions: oral, observation over 7 days
Excerpt: ddY Male mice each weighing from 20 to 22 g (4 weeks of age and 5 mice in one group) were fasted overnight, followed by oral administration of the test compounds which had been suspended in 1% CMC aqueous solution. Observation was made as to the death of the animals over 7 days to thereby determine the minimum lethal doses (MLD).

| SMILES | ED50 [1] | ED50 [2] | ED50 [3] | MLD, acute toxicity test (minimum lethal dose) [4] |
| --- | --- | --- | --- | --- |
| Cl.N=C(N)NC[C@H]1CC[C@H](C(=O)Nc2ccccc2)CC1 [Compound B, N-(phenyl)-trans-4-guanidinomethylcyclohexanecarboxamide hydrochloride] | 220 mg/kg | 143 mg/kg | 73 mg/kg | < 1000 mg/kg |
| N=C(N)NCc1ccc(C(=O)Nc2ccccc2)cc1 [Compound A, N-phenyl-4-guanidinomethylbenzamide] | 35 mg/kg | 34 mg/kg | 58 mg/kg | > 3000 mg/kg |
